Reference: patent US5367077A (priority 1992, dated 1994)

The molecules below were run against GABAa receptor (assay: GABAa receptor binding assay: displacement of [3H]-Flumazenil (RO15-1788) from rat cortical tissue). Settings: rat cortical tissue homogenate, 0.5 nM 3H-RO15-1788, 30 min at 4° C., pH 7.4.
Protocol: The pharmaceutical utility of compounds of this invention are indicated by the following assay for GABAa receptor activity.
Assays are carried out as described in Thomas and Tallman (J. Bio. Chem. 156: 9838-9842 , J. Neurosci. 3: 433-440, 1983). Rat cortical tissue is dissected and homogenized in 25 volumes (w/v) of 0.05M Tris HCl buffer (pH 7.4 at 4° C.). The tissue homogenate is centrifuged in the cold (4° ) at 20,000×g for 20'. The supernatant is decanted and the pellet is rehomogenized in the same volume of buffer and again centrifuged at 20,000×g. The supernatant is decanted and the pellet is frozen at -20° C. overnight. The pellet is then thawed and rehomogenized in 25 volume (original wt/vol) of buffer and the procedure is carried out twice. The pellet is finally resuspended in 50 volumes (w/vol of 0.05M Tris HCI buffer (pH 7.4 at […]).
Incubations contain 100 μl of tissue homogenate, 100 μl of radioligand 0.5nM (^3 H-RO15-1788 [^3 H-Flumazenil] specific activity 80 Ci/mmol), drug or blocker and buffer to a total volume of 500 μl. Incubations are carried for 30 min at 4° C. then are rapidly filtered through GFB filters to separate free and bound ligand. Filters are washed twice with fresh 0.05M Tris HCI buffer (pH 7.4 at 4° C.) and counted in a liquid scintillation counter. 1.0 μM diazepam is added to some tubes to determine nonspecific binding. Data are collected in triplicate determinations. averaged and % inhibition of total specific binding is calculated. Total Specific Binding=Total-Nonspecific. In some cases, the amounts of unlabeled drugs is varied and total displacement curves of binding are carried out. Data are converted to a form for the calculation of IC50 and Hill Coefficient (nH).

In order of rising IC50:
1. COc1cccc(-c2cc3c4c([nH]c3cn2)CCC2(C4)OCCO2)c1 [Compound 18, 2'-(3-Methoxyphenyl)-5',6',7',9'-tetrahydro-spiro[(1,3)dioxolane-2,8'-5H-indolo[3,4-b]pyridine]]  0.12 µM
2. Fc1ccccc1-c1cc2c3c([nH]c2cn1)CCN(Cc1ccccc1)C3 [Compound 20, 8-Benzyl-2-(2-fluorophenyl)-5,6,7,9-tetrahydro-5H-pyrido[4,3-b]pyrido[4,3-d]-pyrrole]  0.13 µM
3. COc1cccc(-c2cc3c4c([nH]c3cn2)CCN(Cc2ccccc2)C4)c1 [Compound 24, 8-Benzyl-2-(3-methoxyphenyl)-5,6,7,9-tetrahydro-5H-pyrido[4,3-b]pyrido[4,3-d]-pyrrole]  0.24 µM
4. Fc1ccccc1-c1cc2c3c([nH]c2cn1)CCCC3 [Compound 2]  0.55 µM
